Reference: patent publication US20190169181A1, “FUMAGILLOL COMPOUNDS AND METHODS OF MAKING AND USING SAME” (Zafgen, Inc., priority 2016, published 2019)

Key:
recombinant human MetAP2 = biological target: T1, recombinant human MetAP2 (Homo sapiens, UniProt P50579); assay: Recombinant human MetAP2 enzyme inhibition assay (MAS peptide / amino acid oxidase / Amplex Ultrared readout); format: biochemical; details: Flag tagged human recombinant MetAP2, 25 minutes at 25° C.
T1 construct: Flag; made in house
T1 sequence (P50579 whole entry): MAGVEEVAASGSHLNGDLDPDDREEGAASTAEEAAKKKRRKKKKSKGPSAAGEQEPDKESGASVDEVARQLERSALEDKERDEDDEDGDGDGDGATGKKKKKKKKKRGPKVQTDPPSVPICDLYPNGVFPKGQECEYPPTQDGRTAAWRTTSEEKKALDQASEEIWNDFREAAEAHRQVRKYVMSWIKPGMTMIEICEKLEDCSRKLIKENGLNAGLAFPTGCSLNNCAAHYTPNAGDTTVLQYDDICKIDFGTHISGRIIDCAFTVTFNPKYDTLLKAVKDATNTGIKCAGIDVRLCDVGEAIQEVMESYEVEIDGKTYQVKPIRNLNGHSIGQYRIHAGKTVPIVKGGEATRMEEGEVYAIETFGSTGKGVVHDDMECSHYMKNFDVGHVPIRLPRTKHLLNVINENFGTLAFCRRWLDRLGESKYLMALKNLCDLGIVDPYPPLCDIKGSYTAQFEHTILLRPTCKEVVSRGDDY

[1] = test system: rat DIO model (Sprague Dawley rats on 45% High Fat diet); assay: 11 day rat DIO model, weight loss vs. vehicle; format: in vivo; details: for Rat @ 0.3 mpk sc (%) weight loss vs. vehicle: 0.3 mpk sc once a day for 11 days
Excerpt: The objective of this study design is to investigate the efficacy of disclosed compounds in an 11 day rat DIO model used to screen compounds for pharmacologic efficacy on endpoints related to obesity and metabolism. Effects on body weight, food intake, hematology and blood chemistries were the primary readouts of this study design. Male Sprague Dawley rats, approximately 8 weeks of age, were ordered from a certified vendor and housed on irradiated corncob bedding in micro-isolator cages, on a 12-hour light-dark cycle (0700-1900) at 68-74° F. and 30-70% humidity. Rats were fed Research Diets D12451 (45% High Fat) and provided water ad libitum. Rats were received and housed in the facility for at least two or three weeks prior to start of test article administration. On Day −4 or −3, rats were randomized into study groups based on body weight and body weights were continued to be recorded daily for the duration of the study. Daily food intake was assessed starting on Study Day −2 by weighing the hopper including the food to avoid loss of food in transfer.
Compounds were formulated into a 100% DMSO stock (at 9 mg/mL) prior to the start, and further diluted into the target working concentration using the vehicle of 10% DMSO in water. Prior to test article administration, starting on Day −3 a dosing acclimation occurred with all animals receiving a subcutaneous injection of vehicle (10% DMSO) only for 3 days. Starting on Day 1, test compounds or vehicle were administered based on individual body weight, subcutaneously, once a day for 11 days. All animals were sacrificed on Day 11, approximately 2 hours following the final dosing on Day 11. After sacrifice, whole blood was collected and analyzed for hematology and blood chemistry parameters.
Compounds were tested for weight loss vs. vehicle at 0.3 and 1.0 mpk sc (mg per kg animal weight delivered subcutaneously), and the results are shown in Table 2 below.

[2] = test system: Diet Induced Obese (DIO) C57BL/6 mice; assay: 10 day DIO mouse model, weight loss vs. vehicle; format: in vivo; details: 240 h; for inhibition in vivo at 0.3 mg/kg: 0.3 mpk sc once a day for 10 days; for inhibition in vivo at 1 mg/kg: 1.0 mpk sc once a day for 10 days
How it was run: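 Male DIO C57BL/6 mice on 60% fat diet, vehicle-acclimated 3 days, then given compound at 0.3 or 1.0 mg/kg SC (10% DMSO in water) once daily for 10 days. Body weight and food intake recorded daily; weight loss versus vehicle, with hematology and blood chemistry on Day 11.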

SMILES | IC50 (recombinant human MetAP2) | Rat @ 0.3 mpk sc (%) weight loss vs. vehicle [1] | inhibition in vivo at 0.3 mg/kg [2] | inhibition in vivo at 1 mg/kg [2] | Rat @ 1.0 mpk sc (%) weight loss vs. vehicle ([1]; 1.0 mpk sc once a day for 11 days)
CO[C@@H]1[C@H](OC(=O)NCC(C)(C)c2cn(C[C@H]3CCCN3C)cn2)CC[C@]2(CO2)[C@H]1[C@@]1(C)O[C@@H]1CC=C(C)C [Example 38, (3R,4S,5S,6R)-5-methoxy-4-((2R,3R)-2-methyl-3-(3-methylbut-2-en-1-yl)oxiran-2-yl)-1-oxaspiro[2.5]octan-6-yl (2-methyl-2-(1-(((R)-1-methylpyrrolidin-2-yl)methyl)-1H-imidazol-4-yl)propyl)carbamate] | 50 to 500 nM | −1.7% | 5% | 5.5% | –
CO[C@@H]1[C@H](OC(=O)N[C@@H](C)Cc2noc(=O)[nH]2)CC[C@]2(CO2)[C@H]1[C@@]1(C)O[C@@H]1CC=C(C)C [Example 28, (3R,4S,5S,6R)-5-methoxy-4-((2R,3R)-2-methyl-3-(3-methylbut-2-en-1-yl)oxiran-2-yl)-1-oxaspiro[2.5]octan-6-yl ((S)-1-(5-oxo-4,5-dihydro-1,2,4-oxadiazol-3-yl)propan-2-yl)carbamate] | < 50 nM | −1.4% | -2.3% | 4.2% | –
CO[C@@H]1[C@H](OC(=O)N[C@H](c2cn(C[C@@H]3CCN(C)C3)cn2)C(C)C)CC[C@]2(CO2)[C@H]1[C@@]1(C)O[C@@H]1CC=C(C)C [Example 13, (3R,4S,5S,6R)-5-methoxy-4-((2R,3R)-2-methyl-3-(3-methylbut-2-enyl)oxiran-2-yl)-1-oxaspiro[2.5]octan-6-yl (S)-2-methyl-1-(1-(((R)-1-methylpyrrolidin-3-yl)methyl)-1H-imidazol-4-yl)propylcarbamate] | 50 to 500 nM | 11.5% | 8.2% | – | 22%
